Measured values as given in patent US11472778B2, “Hepatitis C virus NS3/4A protease inhibitors” (priority 2017, dated 2022).
Read-outs that look alike come from different tables or passages of the source.

Experiments:
[1] = test system: HCV replicon D168V variant in Huh7 cells; assay: microbe, parasite or virus in culture; type: cell-based, Hepatitis C virus; conditions: for EC50: Hepatitis C virus
Method in brief: (§1)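 Con1 (genotype 1b) luciferase reporter replicon carrying H77 (genotype 1a) NS3, with variants made by site-directed mutagenesis, was electroporated into Huh7 cells. Cells were exposed to increasing protease inhibitor concentrations, and replication was read as luciferase activity (relative light units) 96 h after electroporation.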

[2] = rcm bond; 15-membered ring; Zhan 1b; 1,2-DCE; 6.3 mM; 70.0 °C
[3] = test system: HCV replicon D168A variant in Huh7 cells; assay: microbe, parasite or virus in culture; type: cell-based, Hepatitis C virus; conditions: for EC50: Hepatitis C virus
Method in brief: as §1

[4] = test system: HCV replicon A156T variant in Huh7 cells; assay: microbe, parasite or virus in culture; type: cell-based, Hepatitis C virus; conditions: for EC50: Hepatitis C virus
Method in brief: as §1

[5] = test system: HCV replicon R155K variant in Huh7 cells; assay: microbe, parasite or virus in culture; type: cell-based, Hepatitis C virus; conditions: for EC50: Hepatitis C virus
Method in brief: as §1

[6] = target: T1, wild-type GT1a NS3/4A protease (UniProt P27958, C1185S, species not given); type: biochemical, Hepatitis C virus; conditions: read-out: Ki (nM) GT1a WT NS3/4A Protease
T1 construct: Ki (nM) GT1a WT NS3/4A Protease
Method in brief: (§2)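 NS3/4A protease (2 nM; wild-type GT1a or D168A) pre-incubated 1 h at room temperature with increasing inhibitor in 50 mM Tris pH 7.5, 5% glycerol, 10 mM DTT, 0.6 mM LDAO, 4% DMSO. Ki from three independent data sets per construct; ΔG=RTlnKi.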

[7] = target: T2, wild-type GT1a NS3/4A protease (UniProt P27958, C1185S, species not given); type: biochemical, Hepatitis C virus; conditions: read-out: Ki (nM) GT1a WT; Table 6; P4/P4-P5 modified macrocycles
T2 construct: P4/P4-P5 modified macrocycles
Method in brief: as §2

[8] = target: T3, GT1a D168A NS3/4A protease (UniProt P27958, C1185S/D1194A, species not given); type: biochemical, Hepatitis C virus; conditions: read-out: Ki (nM) D168A; Table 6; P4/P4-P5 modified macrocycles
T3 construct: P4/P4-P5 modified macrocycles
Method in brief: as §2

[9] = target: GT1a D168A NS3/4A protease; type: biochemical, Hepatitis C virus; conditions: for Ki (Fold Change) D168A: Table 6, with respect to GT1a wild-type
Method in brief: as §2

[10] = target: T4, GT1a D168A NS3/4A protease (UniProt P27958, C1185S/D1194A, species not given); type: biochemical, Hepatitis C virus; conditions: read-out: Ki (nM) GT1a D168A NS3/4A Protease
T4 construct: Ki (nM) GT1a D168A NS3/4A Protease
Method in brief: as §2

[11] = test system: wild-type HCV replicon in Huh7 cells; assay: Cell-based drug susceptibility (replicon) assay, wild-type; conditions: Hepatitis C virus, read-out: Replicon EC50 (nM) WT
Method in brief: as §1

GT3a NS3/4A protease = target: T5, GT3a NS3/4A protease (Hepatitis C virus genotype 3a, UniProt Q81495); assay: biochemical
T5 construct: drug-resistant variant D168A, and GT3a NS3/4A protease; made in house; host or cells: Escherichia coli BL21(DE3)
T5 sequence (Q81495 1033-1214): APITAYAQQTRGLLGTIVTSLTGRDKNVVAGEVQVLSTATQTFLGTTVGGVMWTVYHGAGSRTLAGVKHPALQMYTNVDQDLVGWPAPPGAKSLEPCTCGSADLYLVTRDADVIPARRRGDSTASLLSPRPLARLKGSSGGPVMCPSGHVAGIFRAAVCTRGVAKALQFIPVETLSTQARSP
Method in brief: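 Protease at 2 nM pre-incubated 1 h at room temperature with increasing inhibitor concentrations in 50 mM Tris, 5% glycerol, 10 mM DTT, 0.6 mM LDAO, 4% DMSO. Three independent data sets per inhibitor and construct.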

[12] = Table 4, relative to WT replicon

## COc1ccc2nc(C)c(O[C@@H]3C[C@H]4C(=O)N[C@]5(C(=O)NS(=O)(=O)C6(C)CC6)C[C@H]5/C=C\CCCCC[C@H](NC(=O)OC(C)(C)C)C(=O)N4C3)nc2c1 [Compound 19b, tert-Butyl ((2R,6S,13aS,14aR,16aS,Z)-2-((7-methoxy-3-methylquinoxalin-2-yl)oxy)-14a-(((1-methylcyclopropyl)sulfonyl)carbamoyl)-5,16-dioxo-1,2,3,5,6,7,8,9,10,11,13a,14,14a,15,16,16a-hexadecahydrocyclopropa[e]pyrrolo[1,2-a][1,4]diazacyclopentadecin-6-yl)carbamate]
[1]; Huh-7, 96 h, read-out: Replicon EC50 (nM) D168V, Table 2, Huh7 cells, luciferase 96 h
  EC50: 1.6 nM
[1]; Huh-7, read-out: Replicon EC50 (nM) D168V, Table 4
  EC50: 1.6 nM
[1]; [12]
  Replicon EC50 (Fold change) D168V: (5) fold
[2]
  ring closure, isolated yield: 70%
[3]; Huh-7, 96 h, read-out: Replicon EC50 (nM) D168A, Table 2, Huh7 cells, luciferase 96 h
  EC50: 2.37 nM
[3]; Huh-7, read-out: Replicon EC50 (nM) D168A, Table 4
  EC50: 2.37 nM
[3]; [12]
  Replicon EC50 (Fold change) D168A: (8) fold
[4]; Huh-7, 96 h, read-out: Replicon EC50 (nM) A156T, Table 2, Huh7 cells, luciferase 96 h
  EC50: 1.57 nM
[4]; Huh-7, read-out: Replicon EC50 (nM) A156T, Table 4
  EC50: 1.57 nM
[4]; [12]
  Replicon EC50 (Fold change) A156T: (5) fold
[5]; Huh-7, 96 h, read-out: Replicon EC50 (nM) R155K, Table 2, Huh7 cells, luciferase 96 h
  EC50: 0.8 nM
[5]; Huh-7, read-out: Replicon EC50 (nM) R155K, Table 4
  EC50: 0.8 nM
[5]; [12]
  Replicon EC50 (Fold change) R155K: (3) fold
[6]; Table 1
  Ki: 3.6 nM
[6]; Table 3
  Ki: 3.6 nM
[7]
  Ki: 3.6 nM
[8]
  Ki: 52 nM
[9]; Table 3, Ki D168A relative to GT1a WT
  Ki (Fold change) GT1a D168A NS3/4A Protease: (14) fold
[9]
  Ki (Fold Change) D168A: (14) fold
[10]; Table 1
  Ki: 52 nM
[10]; Table 3
  Ki: 52 ± 2.4 nM
[11]; Huh-7, 96 h, Table 2, Huh7 cells, luciferase 96 h
  EC50: 0.3 nM
[11]; Huh-7, Table 4
  EC50: 0.3 nM
GT3a NS3/4A protease
  Ki: 119 nM
GT3a NS3/4A protease; Table 3, Ki GT3a relative to GT1a WT
  Ki (Fold change) GT3a NS3/4A Protease: (33) fold
GT3a NS3/4A protease; read-out: Ki (nM) GT3a NS3/4A Protease, Table 3
  Ki: 119 ± 18 nM

## COc1ccc2nc(C)c(O[C@@H]3C[C@H]4C(=O)N[C@]5(C(=O)NS(=O)(=O)C6(C)CC6)C[C@H]5/C=C\CCCCC[C@H](NC(=O)OC5(C)CCCC5)C(=O)N4C3)nc2c1 [Compound P4-3, 1-methylcyclopentyl ((2R,6S,13aS,14aR,16aS,Z)-2-((7-methoxy-3-methylquinoxalin-2-yl)oxy)-14a-(((1-methylcyclopropyl)sulfonyl)carbamoyl)-5,16-dioxo-1,2,3,5,6,7,8,9,10,11,13a,14,14a,15,16,16a-hexadecahydrocyclopropa[e]pyrrolo[1,2-a][1,4]diazacyclopentadecin-6-yl)carbamate]
[7]
  Ki: 1.78 ± 0.3 nM
[8]
  Ki: 16 nM
[9]
  Ki (Fold Change) D168A: (9) fold

## COC(=O)N[C@H](C(=O)N[C@H]1CCCCC/C=C\[C@@H]2C[C@@]2(C(=O)NS(=O)(=O)C2(C)CC2)NC(=O)[C@@H]2C[C@@H](Oc3nc4cc(OC)ccc4nc3C)CN2C1=O)C(C)(C)C [Compound P4-P5-1, Methyl ((S)-1-(((2R,6S,13aS,14aR,16aS,Z)-2-((7-methoxy-3-methylquinoxalin-2-yl)oxy)-14a-(((1-methylcyclopropyl)sulfonyl)carbamoyl)-5,16-dioxo-1,2,3,5,6,7,8,9,10,11,13a,14,14a,15,16,16a-hexadecahydrocyclopropa[e]pyrrolo[1,2-a][1,4]diazacyclopentadecin-6-yl)amino)-3,3-dimethyl-1-oxobutan-2-yl)carbamate]
[7]
  Ki: 29.5 nM
[8]
  Ki: 201 ± 15 nM
[9]
  Ki (Fold Change) D168A: (8) fold

## COc1ccc2nc(C)c(O[C@@H]3C[C@H]4C(=O)N[C@]5(C(=O)NS(=O)(=O)C6(C)CC6)C[C@H]5/C=C\CCCCC[C@H](NC(=O)[C@@H](NC(C)=O)C(C)(C)C)C(=O)N4C3)nc2c1 [Compound P4-P5-2]
[7]
  Ki: 23.9 ± 1.7 nM
[8]
  Ki: 215 ± 16 nM
[9]
  Ki (Fold Change) D168A: (9) fold

## COC(=O)N[C@H](C(=O)N[C@H]1CCCCC/C=C\[C@@H]2C[C@@]2(C(=O)NS(=O)(=O)C2(C)CC2)NC(=O)[C@@H]2C[C@@H](Oc3nc4cc(OC)ccc4nc3C)CN2C1=O)C(C)C [Compound P4-P5-3, Methyl ((S)-1-(((2R,6S,13aS,14aR,16aS,Z)-2-((7-methoxy-3-methylquinoxalin-2-yl)oxy)-14a-(((1-methylcyclopropyl)sulfonyl)carbamoyl)-5,16-dioxo-1,2,3,5,6,7,8,9,10,11,13a,14,14a,15,16,16a-hexadecahydrocyclopropa[e]pyrrolo[1,2-a][1,4]diazacyclopentadecin-6-yl)amino)-3-methyl-1-oxobutan-2-yl)carbamate]
[7]
  Ki: 13 ± 0.8 nM
[8]
  Ki: 102 ± 6.8 nM
[9]
  Ki (Fold Change) D168A: (8) fold

## COc1ccc2nc(C)c(O[C@@H]3C[C@H]4C(=O)N[C@]5(C(=O)NS(=O)(=O)C6(C)CC6)C[C@H]5/C=C\CCCCC[C@H](NC(=O)[C@@H](NC(C)=O)C(C)C)C(=O)N4C3)nc2c1 [Compound P4-P5-4]
[7]
  Ki: 11.1 ± 0.5 nM
[8]
  Ki: 141 ± 18 nM
[9]
  Ki (Fold Change) D168A: (13) fold

## COC(=O)N[C@H](C(=O)N[C@H]1CCCCC/C=C\[C@@H]2C[C@@]2(C(=O)NS(=O)(=O)C2(C)CC2)NC(=O)[C@@H]2C[C@@H](Oc3nc4cc(OC)ccc4nc3C)CN2C1=O)C1CCCC1 [Compound P4-P5-5, Methyl ((S)-1-cyclopentyl-2-(((2R,6S,13aS,14aR,16aS,Z)-2-((7-methoxy-3-methylquinoxalin-2-yl)oxy)-14a-(((1-methylcyclopropyl)sulfonyl)carbamoyl)-5,16-dioxo-1,2,3,5,6,7,8,9,10,11,13a,14,14a,15,16,16a-hexadecahydrocyclopropa[e]pyrrolo[1,2-a][1,4]diazacyclopentadecin-6-yl)amino)-2-oxoethyl)carbamate]
[7]
  Ki: 3.54 ± 0.13 nM
[8]
  Ki: 31.6 ± 2.1 nM
[9]
  Ki (Fold Change) D168A: (9) fold

## CC[C@H](C)[C@H](NC(C)=O)C(=O)N[C@H]1CCCCC/C=C\[C@@H]2C[C@@]2(C(=O)NS(=O)(=O)C2(C)CC2)NC(=O)[C@@H]2C[C@@H](Oc3nc4cc(OC)ccc4nc3C)CN2C1=O [Compound P4-P5-6, (2R,6S,13aS,14aR,16aS,Z)-6-((2S,3S)-2-acetamido-3-methylpentanamido)-2-((7-methoxy-3-methylquinoxalin-2-yl)oxy)-N-((1-methylcyclopropyl)sulfonyl)-5,16-dioxo-1,2,3,6,7,8,9,10,11,13a,14,15,16,16a-tetradecahydrocyclopropa[e]pyrrolo[1,2-a][1,4]diazacyclopentadecine-14a(5H)-carboxamide]
[7]
  Ki: 7.1 ± 0.24 nM
[8]
  Ki: 81 ± 11 nM
[9]
  Ki (Fold Change) D168A: (11) fold
